Source: patent US20240218059A1, “TGF-Beta 1 INHIBITORS FOR PREVENTING AND TREATING SARS-COV-2” (The Regents of the University of Colorado, A Body Corporate, priority 2020, published 2024)

Key:
active TGF-β1 signaling = assay: inhibition of active TGF-β1 signaling in MLEC luciferase reporter cells; type: cell-based, mink
Experimental: In these experiments, SB505124 and galunisertib (Fisher, Inc.) inhibitors were added at 1-2 uM concentrations to MLEC plated in 96-well plates using a 1 hour pre-incubation before addition of human active TGF-β1 in […] concentrations with continued presence of the inhibitor for 18 hours overnight in standard conditions as described in Example 2 methods. A neutraceutical, the green tea catechin ECGC (Sigma) was also tested. Luciferase signals were determined after cell lysis and compared as in Example 2.

[1] = tested on: TGF-β1 signaling caused by NSP15 activation of human latent TGF-β1; type: cell-based, mink; details: 1 hour pre-incubation; 2 μg/ml of antibody or 1-2 μM small molecule; 0-2.4 nM NSP15 plus 2 nM latent human TGF-β1; MLEC; FIG. 8
human latent TGF-β1 = target: T1, human latent TGF-β1 (Homo sapiens, UniProt P01137); type: cell-based; details: peptide incubated 45 minutes at 37° C. with 2 nM human latent TGF-β1, then 18 hours on MLEC; FIG. 5
T1 construct: purchased Acrobio, Inc
T1 sequence (P01137 30-278 limits assumed): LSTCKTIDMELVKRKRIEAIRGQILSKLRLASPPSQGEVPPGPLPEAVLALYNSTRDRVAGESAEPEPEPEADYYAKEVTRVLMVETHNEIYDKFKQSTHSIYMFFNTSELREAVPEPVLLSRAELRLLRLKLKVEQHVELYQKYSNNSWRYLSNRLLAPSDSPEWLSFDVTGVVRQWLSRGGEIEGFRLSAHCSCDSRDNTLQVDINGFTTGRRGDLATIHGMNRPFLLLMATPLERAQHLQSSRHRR

Compound | block of NSP15 mediated effects on TGF-β1 signaling [1] | activation of latent TGF-β1 (luciferase signal, RLU) (human latent TGF-β1) | other results
O=C(O[C@@H]1Cc2c(O)cc(O)cc2O[C@@H]1c1cc(O)c(O)c(O)c1)c1cc(O)c(O)c(O)c1 [ECGC] | – | – | inhibition of active TGF-β1 signaling at higher concentrations (active TGF-β1 signaling; 80 uM, subsequent experiments, not shown): 80%; effectiveness at blocking active TGF-β1 signaling (active TGF-β1 signaling; 1-2 μM concentrations, MLEC, FIG. 7): not effective
Cc1cccc(-c2[nH]c(C(C)(C)C)nc2-c2ccc3c(c2)OCO3)n1 [SB505124] | block NSP15 mediated effects on TGF-β1 signaling | – | –
Cc1cccc(-c2nn3c(c2-c2ccnc4ccc(C(N)=O)cc24)CCC3)n1 [galunisertib] | block NSP15 mediated effects on TGF-β1 signaling | – | –
DKRFKQDGGWSHWSPW [TSP1] | – | not a significant activator of latent TGF-β1 | –
KFILALRKLLFESEGP [SCR] | – | not | –
LLIGLAKRFKESPFEL [NSP15 KRFK-region peptide, 16 amino acid synthetic peptide centered on the SARS-CoV2 NSP15 KRFK region] | – | activates latent TGF-β1 | –
